Assay results: patent US20060251689A1, “Treatment or prevention of pruritus” (Astion Development A/S, priority 2005, published 2006)
“Also recorded” adds a separate entry of the source.

Columns and labels:
skin = conditions: reported in the literature; cited from earlier work
[1] = test system: moderate to severe inflammation following treatment with cryotherapy; conditions: topically applied; cited from earlier work
[2] = test system: experimental contact dermatitis; conditions: topically applied; cited from earlier work
[3] = test system: oxazolone induced ear inflammation in mice; experiment: Oxazolone induced mouse ear oedema assay; type: in vivo
Description: This screening method is commonly employed for screening and evaluation of anti-inflammatory drugs, in particular with respect to the inflammation seen in contact dermatitis. Betamethasone-17 valerate was used as the positive control. […] Betamethason was administered topically in quantities of 20 μg/ear. Betamethason was applied in the commercial form Celeston valerate® 0.1%. All groups were immunised with 20 μl oxazolone, 1.6% in ethanol 96% (w/v) on the left and the right ear. The ear thickness of all mice on both the left and right side was measured with an electronic measuring gauge. All groups were challenged with 20 μl oxazolone (1.6% in ethanol 96% (w/v)) on the left ear and the right ear. Vehicle (acetone) or test article solutions were administered 20 minutes before and 20 minutes after oxazolone challenge. 24 hours after oxazolone challenge the ear thickness of all mice was measured with an electronic measuring gauge. Mean thickness of the ears and standard deviations were calculated. Ear swelling was calculated as the difference between the ear thickness day 7 and day 8. […] Differences in ear swelling between the vehicle treated group and the other groups were tested for significance employing a non-parametric statistical method of analysis, the Mann-Whitney U test. The required level of significance was p<0.05. […] Both test articles were applied in a dose of 500 μg/ear and dissolved in 96% ethanol. Betamethason, as the positive control was administered topically in quantities of 20 μg/ear.

undamaged skin area = experiment: Acute dermal irritation; type: in vivo
Description: The sample was applied at a dose of 0.5 mL, on an undamaged skin area of the right flank of each animal. The patch was secured in position with a strip of surgical adhesive tape.
On the left flank an untreated area served as the control.
The skin reactions were evaluated after 1 hour and then after 24, 48 and 72 hours following removal of the patch according to the following grading scale:
Erythema (0: No erythema, 1: Slight(barelyperceptible)erythema, 2: Definite erythema, 3: Moderate to severe erythema, 4: Severe erythema (purpie) with formation of eschars (deep lesions) preventing erythema from being grading).
Oedema (0: No oedema, 1: Very slight (barely perceptible) oedema, 2: Slight oedema (contour clearly defined), 3: Moderate oedema (thickness), 4: Severe oedema (thickness greater than 1 mm, surface larger than zone of application)

[4] = test system: Albino guinea pigs of Dunkin-Hartley strain; conditions: guinea pig, in vivo
Description: Test for skin sensitization is carried out according to the Magnusson and Kligman method (J. Invest. Dermatol. 1969. 52, 268-276) and in accordance with O.E.C.D. Guideline No. 406 of Jul. 17th, 1992, and the test method B.6 of the 96/54 E.E.C Directive.
Albino guinea pigs of Dunkin-Hartley strain were exposed to the test item after an acclimatisation period of at least five days.
The Maximum Non Necrotizing Concentration (M.N.N.C.) was determined by injecting by intradermal route the following concentrations: 2.5%, 1.25%, 0.625%, 0.3125%, 0.1562% and 0.078% diluted in physiological saline solution.
Pre-Maximum Non Irritant Concentration (pre-M.N.I.C.) was determined by application of the test item under an occlusive dressing during 24 hours, at the following concentrations: 2.5%, 1.25%, 0.625%, 0.3125% diluted in physiological saline solution.
Maximum Non Irritant Concentration (M.N.I.C.) was determined by initially establishing an induction phase by intradermal injection with a physiological saline solution and by topical application of distilled water followed by a 18-day rest phase. In the challenge phase where the test item is under occlusive dressing for 24 hours, the test item was applied to the skin of the Albino guinea pigs at the following concentrations: 2.5%, 1.25%, 0.625%, 0.3125% diluted in physiological saline solution.

[5] = molecular target: T1, Protein Tyrosine Kinase, SYK (Homo sapiens, UniProt P43405); experiment: enzyme assay, Protein Tyrosine Kinase SYK (MDS Pharma Service No 155761); type: biochemical; conditions: in words, comparison
T1 construct: purchased MDS Pharma Services (printed once as 'MSD Pharma Services') 155761
Description: (§1) The enzyme assays were conducted by MSD Pharma Services.

[6] = molecular target: T2, Protein Tyrosine Kinase, ZA70 (ZAP-70) (Homo sapiens, UniProt P43403); experiment: enzyme assay, Protein Tyrosine Kinase ZA70 (ZAP-70) (MDS Pharma Service No 155987); type: biochemical; conditions: in words, comparison
T2 construct: purchased MDS Pharma Services (printed once as 'MSD Pharma Services') 155987
T2 sequence (P43403 1-619): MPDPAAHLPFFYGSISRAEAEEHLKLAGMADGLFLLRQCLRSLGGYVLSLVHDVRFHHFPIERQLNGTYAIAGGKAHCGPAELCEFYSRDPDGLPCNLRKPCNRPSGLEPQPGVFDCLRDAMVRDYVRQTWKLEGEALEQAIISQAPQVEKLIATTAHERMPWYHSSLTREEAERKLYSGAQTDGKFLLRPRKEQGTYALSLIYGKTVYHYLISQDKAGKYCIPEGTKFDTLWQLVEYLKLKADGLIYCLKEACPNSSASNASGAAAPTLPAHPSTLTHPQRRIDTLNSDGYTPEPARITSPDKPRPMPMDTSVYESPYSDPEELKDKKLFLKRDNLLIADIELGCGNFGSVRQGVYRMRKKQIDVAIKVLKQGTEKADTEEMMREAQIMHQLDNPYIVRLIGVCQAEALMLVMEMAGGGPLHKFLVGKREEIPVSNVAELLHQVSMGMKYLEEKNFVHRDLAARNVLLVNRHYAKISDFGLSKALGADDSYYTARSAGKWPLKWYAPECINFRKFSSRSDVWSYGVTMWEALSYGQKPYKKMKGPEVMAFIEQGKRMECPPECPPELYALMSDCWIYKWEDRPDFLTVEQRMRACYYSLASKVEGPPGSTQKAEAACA
Description: as §1

Phosphodiesterase PDE IV = experiment: enzyme assay, Phosphodiesterase PDE IV (MDS Pharma Service No 154000); type: biochemical; conditions: in words, comparison

For `CN1C(C(=O)Nc2ccccn2)=C(O)c2ccccc2S1(=O)=O` [piroxicam], the cutaneous side effects (skin) is listed as “phototoxic or photoallergic dermatitis”.
In the case of `O=C(O)Cc1ccccc1Nc1c(Cl)cccc1Cl` [Diclofenac], the cutaneous side effects (skin) is listed as “irritant-type contact dermatitis may develop”.
For `CCC(=O)O[C@]1(C(=O)CCl)[C@@H](C)C[C@H]2[C@@H]3CCC4=CC(=O)C=C[C@]4(C)[C@@]3(F)[C@@H](O)C[C@@]21C` [clobetasol propionate], the “relieving the erythema and oedema” value [1] is given as “proved to have effect”.
For `COc1ccc2c(c1)c(CC(=O)O)c(C)n2C(=O)c1ccc(Cl)cc1` [indomethacin], the “response in an animal model of contact dermatitis” value [2] is listed as “has been shown to respond”, the cutaneous side effects (skin) is listed as “may induce urticarial reactions” and the “relieving the erythema and oedema” value [1] is listed as “poor effect”.
In the case of `CCCCC(=O)O[C@]1(C(=O)CO)[C@@H](C)C[C@H]2[C@@H]3CCC4=CC(=O)C=C[C@]4(C)[C@@]3(F)[C@@H](O)C[C@@]21C` [Betamethasone 17-valerate], the “% inhibition of ear swelling” value ([3]; 20 μg/ear topical (Celeston valerate 0.1%), 24 hours after challenge) is reported as 66%.
In the case of `CC(C(=O)O)c1cccc(C(=O)c2ccccc2)c1` (stereo not shown) [Ketoprofen], the cutaneous side effects (skin) is listed as “major contact allergens”.
In the case of `O=C(O)CCc1nc(-c2ccccc2)c(-c2ccccc2)o1` [Oxaprozin, 4,5-diphenyl-2-oxazole-propionic acid], the “inhibition of the formation of ear oedema” value ([3]; Example 7, 500 μg/ear dissolved in 96% ethanol) is reported as “statistically significant inhibition”, the “cutaneous reactions (erythema and oedema)” value (undamaged skin area; 2.5% by weight in water (monoethanolamine salt), 0.5 mL, 1, 24, 48 and 72 hours) is reported as “no cutaneous reactions” and the “erythema on the treated area” value (undamaged skin area; 5% by weight in water (monoethanolamine salt), 0.5 mL, reading time 1 hour) is reported as “slight erythema”. For the same molecule, the “reversibility of the erythema” value (undamaged skin area; 5% by weight, between the 2nd and the 3rd day of the test) was “totally reversible”.
For `O=C(O)CCc1nc(-c2ccccc2)c(-c2ccccc2)o1` [Monoethanolamine Oxaprozin], the “sensitization, macroscopic cutaneous reactions in the challenge phase” value [4] was “No macroscopic cutaneous reactions attributable to allergy” and the “inhibition of ear swelling (conclusion in words)” value ([3]; 250-1000 μg/ear topical) was “dose dependent and highly significant inhibition”.
For `CCCCOc1ccc(CC(=O)NO)cc1` [Bufexamac], the “inhibitory effect on Protein Tyrosine Kinase SYK” value [5] is given as “only exhibits inhibitory effect on the PDE-IV enzyme”, the cutaneous side effects (skin) is given as “cause contact allergy; also recorded: major contact allergens” and the “inhibitory effect on Protein Tyrosine Kinase ZAP-70” value [6] is given as “only exhibits inhibitory effect on the PDE-IV enzyme”. For the same molecule, the “inhibitory effect on the PDE-IV enzyme” value (Phosphodiesterase PDE IV) was “inhibitory effect”.
For `CC(=O)Oc1ccccc1C(=O)O` [aspirin], the cutaneous side effects (skin) is given as “may induce urticarial reactions”.
